Data: the supplement of paper PMC11451515

What was measured:
Conditions in all cases: 48 h
SEM cells [1] = experiment: cell viability relative to DMSO control; higher = less cytotoxic
How it was run: (§1)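 NOMO1, SEM and P12-Ichikawa leukemia cells spent at least four passages adapting to each medium before use. They were seeded at 500 cells/well (NOMO1, SEM) or 1000 cells/well (P12-Ichikawa) in 5 μl in 1536-well plates and pin-dosed with library compounds in DMSO at 11 threefold steps from 47 μM down to 0.79 nM. After 48 h at 37°C, CellTiter-Glo One luminescence was read. Viability is reported as a percentage of the DMSO wells on each plate, with cell-free wells as background.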

NOMO1 [2] = experiment: AUC of viability dose-response curve (% viability x log10 dose units); higher = less sensitive
How it was run: (§2)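 Over 48 h at 37°C, leukemia cells in 1536-well plates (500 or 1000 cells/well), adapted to each medium, received library compounds in DMSO at 11 threefold doses from 47 μM to 0.79 nM. CellTiter-Glo One luminescence, normalised per plate to DMSO and cell-free wells, was fitted by a four-parameter log-logistic function of log10 dose. The area under the curve was then integrated by trapezoidal rule, after scaling curves above full viability and removing those that failed quality control.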

P12-Ichikawa [3] = experiment: as above
How it was run: as §2

SEM cells [4] = experiment: as above
How it was run: as §2

NOMO1 [5] = experiment: cell viability relative to DMSO control; higher = less cytotoxic
How it was run: as §1

P12-Ichikawa [6] = experiment: as above
How it was run: as §1

[7] = HPLM + 10% dialyzed FBS, 0.000781 µM
[8] = HPLM + 10% dialyzed FBS, 0.00234 µM
[9] = HPLM + 10% dialyzed FBS, 0.00702 µM
[10] = HPLM + 10% dialyzed FBS, 0.0211 µM
[11] = HPLM + 10% dialyzed FBS, 0.0632 µM
[12] = HPLM + 10% dialyzed FBS, 0.19 µM
[13] = HPLM + 10% dialyzed FBS, 0.569 µM
[14] = HPLM + 10% dialyzed FBS, 1.71 µM
[15] = HPLM + 10% dialyzed FBS, 5.12 µM
[16] = HPLM + 10% dialyzed FBS, 15.4 µM
[17] = HPLM + 10% dialyzed FBS, 46.1 µM
[18] = RPMI 5 mM glucose + 10% dialyzed FBS
[19] = RPMI 5 mM glucose + 10% FBS, 0.000781 µM
[20] = RPMI 5 mM glucose + 10% FBS, 0.00234 µM
[21] = RPMI 5 mM glucose + 10% FBS, 0.00702 µM
[22] = RPMI 5 mM glucose + 10% FBS, 0.0211 µM
[23] = RPMI 5 mM glucose + 10% FBS, 0.0632 µM
[24] = RPMI 5 mM glucose + 10% FBS, 0.19 µM
[25] = RPMI 5 mM glucose + 10% FBS, 0.569 µM
[26] = RPMI 5 mM glucose + 10% FBS, 1.71 µM
[27] = RPMI 5 mM glucose + 10% FBS, 5.12 µM
[28] = RPMI 5 mM glucose + 10% FBS, 15.4 µM
[29] = RPMI 5 mM glucose + 10% FBS, 46.1 µM
[30] = RPMI 5 mM glucose + 10% dialyzed FBS, 0.000781 µM
[31] = RPMI 5 mM glucose + 10% dialyzed FBS, 0.00234 µM
[32] = RPMI 5 mM glucose + 10% dialyzed FBS, 0.00702 µM
[33] = RPMI 5 mM glucose + 10% dialyzed FBS, 0.0211 µM
[34] = RPMI 5 mM glucose + 10% dialyzed FBS, 0.0632 µM
[35] = RPMI 5 mM glucose + 10% dialyzed FBS, 0.19 µM
[36] = RPMI 5 mM glucose + 10% dialyzed FBS, 0.569 µM
[37] = RPMI 5 mM glucose + 10% dialyzed FBS, 1.71 µM
[38] = RPMI 5 mM glucose + 10% dialyzed FBS, 5.12 µM
[39] = RPMI 5 mM glucose + 10% dialyzed FBS, 15.4 µM
[40] = RPMI 5 mM glucose + 10% dialyzed FBS, 46.1 µM

For `COC(=O)/C=C/C(=O)OC`, the cell viability (SEM cells [1]; [7]) was 118%, the cell viability (SEM cells [1]; [8]) was 126% and the cell viability (SEM cells [1]; [9]) was 106%. It also gave a cell viability (SEM cells [1]; [10]) of 119%, a cell viability (SEM cells [1]; [11]) of 135% and a cell viability (SEM cells [1]; [12]) of 135%. The cell viability (SEM cells [1]; [13]) was 126%, the cell viability (SEM cells [1]; [14]) was 124% and the cell viability (SEM cells [1]; [15]) was 60%. For the same compound, the cell viability (SEM cells [1]; [16]) was 43.8%, the cell viability (SEM cells [1]; [17]) was 43.3% and the “AUC of viability dose-response curve” value (NOMO1 [2]; HPLM + 10% dialyzed FBS) was 433. The “AUC of viability dose-response curve” value (NOMO1 [2]; RPMI 5 mM glucose + 10% FBS) was 402, the “AUC of viability dose-response curve” value (NOMO1 [2]; [18]) was 413 and the “AUC of viability dose-response curve” value (P12-Ichikawa [3]; HPLM + 10% dialyzed FBS) was 323. The “AUC of viability dose-response curve” value (P12-Ichikawa [3]; RPMI 5 mM glucose + 10% FBS) was 368, the “AUC of viability dose-response curve” value (P12-Ichikawa [3]; [18]) was 352 and the “AUC of viability dose-response curve” value (SEM cells [4]; HPLM + 10% dialyzed FBS) was 406. For the same compound, the “AUC of viability dose-response curve” value (SEM cells [4]; RPMI 5 mM glucose + 10% FBS) was 354 and the “AUC of viability dose-response curve” value (SEM cells [4]; [18]) was 376.

`O=C(O)C1CCCN(CCC=C(c2ccccc2)c2ccccc2)C1` (centres undefined) was tested, and the “AUC of viability dose-response curve” value (NOMO1 [2]; HPLM + 10% dialyzed FBS) was 425, the “AUC of viability dose-response curve” value (NOMO1 [2]; RPMI 5 mM glucose + 10% FBS) was 453 and the “AUC of viability dose-response curve” value (NOMO1 [2]; [18]) was 465. For the same compound, the “AUC of viability dose-response curve” value (P12-Ichikawa [3]; HPLM + 10% dialyzed FBS) was 469, the “AUC of viability dose-response curve” value (P12-Ichikawa [3]; RPMI 5 mM glucose + 10% FBS) was 459 and the “AUC of viability dose-response curve” value (P12-Ichikawa [3]; [18]) was 474. The “AUC of viability dose-response curve” value (SEM cells [4]; HPLM + 10% dialyzed FBS) was 463, the “AUC of viability dose-response curve” value (SEM cells [4]; RPMI 5 mM glucose + 10% FBS) was 462 and the “AUC of viability dose-response curve” value (SEM cells [4]; [18]) was 464.

`Cl.Nc1ccn([C@@H]2O[C@H](CO)[C@@H](O)C2(F)F)c(=O)n1` was tested, and the “AUC of viability dose-response curve” value (NOMO1 [2]; HPLM + 10% dialyzed FBS) was 263, the “AUC of viability dose-response curve” value (NOMO1 [2]; RPMI 5 mM glucose + 10% FBS) was 243 and the “AUC of viability dose-response curve” value (NOMO1 [2]; [18]) was 248. The “AUC of viability dose-response curve” value (P12-Ichikawa [3]; HPLM + 10% dialyzed FBS) was 230, the “AUC of viability dose-response curve” value (P12-Ichikawa [3]; RPMI 5 mM glucose + 10% FBS) was 223 and the “AUC of viability dose-response curve” value (P12-Ichikawa [3]; [18]) was 212. The “AUC of viability dose-response curve” value (SEM cells [4]; HPLM + 10% dialyzed FBS) was 179, the “AUC of viability dose-response curve” value (SEM cells [4]; RPMI 5 mM glucose + 10% FBS) was 175 and the “AUC of viability dose-response curve” value (SEM cells [4]; [18]) was 141.

`CC(C)NCC(O)COc1ccc(CCOCC2CC2)cc1` (centres undefined) showed a cell viability (NOMO1 [5]; [19]) of 118%, a cell viability (NOMO1 [5]; [20]) of 128% and a cell viability (NOMO1 [5]; [21]) of 107%. The cell viability (NOMO1 [5]; [22]) was 109%, the cell viability (NOMO1 [5]; [23]) was 105% and the cell viability (NOMO1 [5]; [24]) was 107%. For the same compound, the cell viability (NOMO1 [5]; [25]) was 109%, the cell viability (NOMO1 [5]; [26]) was 110% and the cell viability (NOMO1 [5]; [27]) was 114%. It also gave a cell viability (NOMO1 [5]; [28]) of 102%, a cell viability (NOMO1 [5]; [29]) of 19.9% and a cell viability (NOMO1 [5]; [30]) of 121%. For the same compound, the cell viability (NOMO1 [5]; [31]) was 125%, the cell viability (NOMO1 [5]; [32]) was 122% and the cell viability (NOMO1 [5]; [33]) was 117%. It also gave a cell viability (NOMO1 [5]; [34]) of 119%, a cell viability (NOMO1 [5]; [35]) of 118% and a cell viability (NOMO1 [5]; [36]) of 129%. The cell viability (NOMO1 [5]; [37]) was 113%, the cell viability (NOMO1 [5]; [38]) was 116% and the cell viability (NOMO1 [5]; [39]) was 99.1%. The cell viability (NOMO1 [5]; [40]) was 20.9%, the cell viability (P12-Ichikawa [6]; [7]) was 121% and the cell viability (P12-Ichikawa [6]; [8]) was 118%. The cell viability (P12-Ichikawa [6]; [9]) was 113%, the cell viability (P12-Ichikawa [6]; [10]) was 117% and the cell viability (P12-Ichikawa [6]; [11]) was 113%. It also gave a cell viability (P12-Ichikawa [6]; [12]) of 126%, a cell viability (P12-Ichikawa [6]; [13]) of 115% and a cell viability (P12-Ichikawa [6]; [14]) of 113%. The cell viability (P12-Ichikawa [6]; [15]) was 111%, the cell viability (P12-Ichikawa [6]; [16]) was 118% and the cell viability (P12-Ichikawa [6]; [17]) was 120%. It also gave a cell viability (P12-Ichikawa [6]; [19]) of 120%, a cell viability (P12-Ichikawa [6]; [20]) of 123% and a cell viability (P12-Ichikawa [6]; [21]) of 118%. For the same compound, the cell viability (P12-Ichikawa [6]; [22]) was 121%, the cell viability (P12-Ichikawa [6]; [23]) was 125% and the cell viability (P12-Ichikawa [6]; [24]) was 121%. The cell viability (P12-Ichikawa [6]; [25]) was 131%, the cell viability (P12-Ichikawa [6]; [26]) was 126% and the cell viability (P12-Ichikawa [6]; [27]) was 118%. It also gave a cell viability (P12-Ichikawa [6]; [28]) of 104%, a cell viability (P12-Ichikawa [6]; [29]) of 123% and a cell viability (P12-Ichikawa [6]; [30]) of 121%. The cell viability (P12-Ichikawa [6]; [31]) was 121%, the cell viability (P12-Ichikawa [6]; [32]) was 112% and the cell viability (P12-Ichikawa [6]; [33]) was 116%. It also gave a cell viability (P12-Ichikawa [6]; [34]) of 122%, a cell viability (P12-Ichikawa [6]; [35]) of 116% and a cell viability (P12-Ichikawa [6]; [36]) of 110%. For the same compound, the cell viability (P12-Ichikawa [6]; [37]) was 119%, the cell viability (P12-Ichikawa [6]; [38]) was 113% and the cell viability (P12-Ichikawa [6]; [39]) was 107%. It also gave a cell viability (P12-Ichikawa [6]; [40]) of 115%, a cell viability (SEM cells [1]; [7]) of 94.9% and a cell viability (SEM cells [1]; [8]) of 94.5%. For the same compound, the cell viability (SEM cells [1]; [9]) was 101%, the cell viability (SEM cells [1]; [10]) was 107% and the cell viability (SEM cells [1]; [11]) was 106%. It also gave a cell viability (SEM cells [1]; [12]) of 116%, a cell viability (SEM cells [1]; [13]) of 99.1% and a cell viability (SEM cells [1]; [14]) of 90.4%. For the same compound, the cell viability (SEM cells [1]; [15]) was 107%, the cell viability (SEM cells [1]; [16]) was 91.4% and the cell viability (SEM cells [1]; [17]) was 95.1%. The cell viability (SEM cells [1]; [30]) was 115%, the cell viability (SEM cells [1]; [31]) was 104% and the cell viability (SEM cells [1]; [32]) was 110%. The cell viability (SEM cells [1]; [33]) was 113%, the cell viability (SEM cells [1]; [34]) was 109% and the cell viability (SEM cells [1]; [35]) was 113%. For the same compound, the cell viability (SEM cells [1]; [36]) was 125%, the cell viability (SEM cells [1]; [37]) was 114% and the cell viability (SEM cells [1]; [38]) was 97.6%. For the same compound, the cell viability (SEM cells [1]; [39]) was 105%, the cell viability (SEM cells [1]; [40]) was 108% and the “AUC of viability dose-response curve” value (NOMO1 [2]; HPLM + 10% dialyzed FBS) was 427. For the same compound, the “AUC of viability dose-response curve” value (NOMO1 [2]; RPMI 5 mM glucose + 10% FBS) was 453, the “AUC of viability dose-response curve” value (NOMO1 [2]; [18]) was 448 and the “AUC of viability dose-response curve” value (P12-Ichikawa [3]; HPLM + 10% dialyzed FBS) was 474. For the same compound, the “AUC of viability dose-response curve” value (P12-Ichikawa [3]; RPMI 5 mM glucose + 10% FBS) was 469, the “AUC of viability dose-response curve” value (P12-Ichikawa [3]; [18]) was 461 and the “AUC of viability dose-response curve” value (SEM cells [4]; HPLM + 10% dialyzed FBS) was 470. The “AUC of viability dose-response curve” value (SEM cells [4]; RPMI 5 mM glucose + 10% FBS) was 458 and the “AUC of viability dose-response curve” value (SEM cells [4]; [18]) was 468.
